Read-outs that look alike come from different tables or passages of the source.
Tests used:
[1] = test system: GBM6 CSCs; test: Cytotoxic assay (sulforhodamine B growth inhibition, 72 hours); type: cell-based, human; details: at least three independent experiments, read-out: EC50 +/− SEM, cytotoxic activity
Procedure: (§1) Cells (5000 cells/well) were seeded in previously poly-DL-ornithine (Sigma-Aldrich) coated 96-well plates (10 μg/mL) and allowed to grow for 24 hours before treatment with BAL27862. Growth inhibition of cells was measured after 72 hours by using a sulforhodamine B assay kit (Sigma-Aldrich). Cell density was analyzed using a microplate reader (Labsystems Multiscan, Thermo, Villebon sur Yvette, France) and analysis of EC50 were performed with GraphPad 5.0 statistical software (GraphPad Software, La Jolla, USA). At least three independent experiments were performed.

[2] = test system: GBM9 CSCs; test: as above; type: cell-based, human; details: at least three independent experiments, read-out: EC50 +/− SEM, cytotoxic activity
Procedure: as §1

[3] = test system: GBM6 CSCs; test: Transwell cell migration assay; type: cell-based, human
Procedure: (§2) Stem cells (50′000) were poured on the upper side of a transwell migration chamber ([…] filter, BD) in DMEM. The lower side of the chamber was filled with DMEM, supplemented with 10% FCS. Cells were allowed to transmigrate for 5 hours and then chambers were removed. […] After washing and drying, pictures of six fields per condition were imaged at a magnification of 10× and transmigrated cells were counted.

[4] = test system: GBM9 CSCs; test: Transwell cell migration assay; type: cell-based, human; details: 5 hours transmigration
Procedure: as §2

[5] = test system: GBM6 CSCs; test: Clonogenic survival assay; type: cell-based, human; details: 6 and 10 nM, 72 hours
Procedure: Cells were grown in previously poly-DL-ornithine (Sigma-Aldrich) coated 6-well plates (1000 cells/well) and after treatment for 72 hours with BAL27862, incubated for up to 5 days. Colonies were stained with 1% Crystal-violet solution in 20% methanol (Sigma-Aldrich). The colonies with more than 50 cells were counted. At least three independent experiments were performed.

[6] = test system: GBM6 CSCs; test: FACS analysis of A2B5 positive GBM6 brain tumor CSCs in vitro; type: cell-based, human; details: 6 nM, 72 hours
Procedure: GBM6 cells were seeded at 300′000 cells/well into poly-DL-ornithine-coated 6-well plates (10 μg/mL)(Sigma-Aldrich), in stem cell-permissive medium (5 mg/mL Insulin, 0.1 mM Putrescine, […] Transferrin, 2.10^−8M Progesterone, 50 mg/mL Penicillin-Streptomycin and growth factors including 10 ng/mL basic fibroblast growth factor (bFGF), 20 ng/mL epidermal growth factor (EGF) and B27). One day later, cells were treated with BAL27862 for 72 hours. Then, cells were trypsinized, suspended in Hanks' Balanced Salt Solution (HBSS) buffer (Life technologies) containing blocking solution (Miltenyi Biotec) and incubated with A2B5-APC (clone 105HB29, reference 130-093-582) and CD133-PE (clone 293C3, reference 130-090-853) antibodies (Miltenyi Biotec) for 10 minutes. Cells were then fixed with 10% paraformaldehyde (Sigma-Aldrich) for 20 minutes and analyzed using flow cytometry (FACS Calibur™ BD Biosciences). A total of 100′000 events were counted for each sample and data were recorded with the CellQuest Pro Software (BD Biosciences) and analyzed using FlowJo software (Tree Star Inc., San Carlos, Calif.) and the Dean-Jet-Fox model analysis.

[7] = test system: GBM6 CSCs; test: Self-renewal capacity determination (sphere formation); type: cell-based, human; details: 6 nM, 72 hours
Procedure: GBM6 cells were seeded in previously poly-DL-ornithine (Sigma-Aldrich) coated 6-well plates (150′000 cells/well). After 24 hours, cells were treated or not with BAL27862 for 72 hours. At the end of treatment, the supernatant was removed and cells were harvested, dissociated into single cells and plated in 96-well plates (1-5 cells/well). Eight days later, the spheres were counted under an inverted light microscope (Leica DMI 4000B) (Leica, Saint Jorioz, France). Three independent experiments were performed.

[8] = test system: orthotopic GBM6 tumors; test: Orthotopic GBM6 xenografts, tumor volume by three-dimensional brain reconstruction; type: in vivo, mouse; details: 25 mg/kg i.v. days 30/33/36, day 45
Procedure: (§3) Approximately 100′000 cells of GBM6 GFP sh0 or shEB1 cells were stereotactically injected into the subventricular zone (0.5 mm anterior to bregma, −1 mm lateral, and −2.1 mm deep to the cortex surface) of 6-week-old athymic Nude mice. Grafted mice were intravenously treated with 25 mg/kg BAL101553 (three times at 30, 33 and 36 days after glioma implantation) or with vehicle (control). Forty five days after implantation, three animals of each group were sacrificed for analysis of tumor volumes (by three-dimensional brain reconstructions) or for FACS analysis.
For analysis of tumor volumes, mice were anesthetized and perfused with 4% paraformaldehyde. Brains were removed and fixed in 4% paraformaldehyde for 2 days at 4° C., then rinsed and conserved in PBS until dissection. Brains were entirely cut into 50-100-μm-thick sections using Vibratome (Leica) following the sagittal axis. A total of 60 sections per brain were obtained. Mapping and analysis of GFP-injected cells and tumors were performed by using a Leica DMLB fluorescence microscope, a Leica DC300F digital camera, and the Leica FW4000 imaging software (Leica). Three-dimensional brain reconstructions were obtained using FreeD software (Andrey P., Free-D: an integrated environment for three-dimensional reconstruction from serial sections. Journal of Neuroscience Methods. 2005; 145(1-2):233-244). […]

[9] = test system: orthotopic GBM6 tumors; test: FACS analysis of A2B5 brain tumor cancer stem cells from orthotopic GBM6 tumors; type: in vivo, mouse; details: 25 mg/kg i.v. days 30/33/36, day 45
Procedure: as §3
After anesthesia, animals were perfused with PBS, and brains were removed and stored in HBSS buffer containing 2% FBS. Cells were dissociated in a cocktail of enzymes (DNase I (Roche, Rotkreuz, Switzerland), Collagenase D (Roche) and V (Sigma-Aldrich) with GentleMACS dissociator (Miltenyi Biotech)). The reaction was stopped by adding DMEM containing 10% FCS. The suspension was filtered and cells were resuspended in 40% Percoll (Sigma-Aldrich). After centrifugation, myelin was removed and cells were resuspended in HBSS buffer containing 2% FCS. Cells were incubated in HBSS containing 2% FCS with A2B5-APC and CD133-PE antibodies for 10 minutes. Cells were then fixed with 10% paraformaldehyde for 20 minutes and analyzed using flow cytometry. A total of 100′000 events were counted for each sample and data were recorded with the CellQuest Pro Software and analyzed using FlowJo software choosing the Dean-Jet-Fox model analysis.

[10] = GBM6 GFP sh0 (normal EB1 levels)
[11] = GBM6 GFP shEB1 (EB1 downregulated)

SMILES: N#CCCNc1nonc1-c1nc2ccccc2n1CC(=O)c1ccc(N)cc1 [BAL27862, 3-(4-{1-[2-(4-amino-phenyl)-2-oxo-ethyl]-1H-benzoimidazol-2-yl}-furazan-3-ylamino)-propionitrile]
- EC50 ([1]; Homo sapiens, GBM6, 72 h): ~20 nM
- EC50 [1]: 20.8 nM
- EC50 ([2]; Homo sapiens, 72 h): ~20 nM
- EC50 [2]: 21.7 nM
- inhibition of cell migration ([3]; EB1 downregulated GBM6 cells (shEB1), 6 nM): inhibitory effect of BAL27862 treatment was drastically reduced
- inhibition of cell migration ([3]; GBM6, cytotoxic 20 nM, 5 hours transmigration): drastically inhibited the migration
- inhibition of cell migration ([3]; GBM6, non-cytotoxic 6 nM, 5 hours transmigration): statistically significant inhibition of cell migration
- inhibition of cell migration ([3]; control EB1-expressing GBM6 cells, 6 nM): statistically significant inhibition of cell migration
- inhibition of cell migration ([4]; GBM9, cytotoxic 20 nM): drastically inhibited the migration
- inhibition of cell migration ([4]; GBM9, non-cytotoxic 6 nM): did not respond
- clonogenic capacity (colony formation) [5, 10]: impaired the clonogenic capacity of GBM6 CSCs at the sub-toxic doses of 6 and 10 nM in a statistically significant manner
- clonogenic capacity (colony formation) ([5]; GBM6 GFP shEB1 (EB1 levels downregulated)): only in the EB1-expressing cells
- A2B5 positive cell number ([6]; GBM6 GFP sh0 (EB1 expressed)): significant inhibition
- A2B5 positive cell number [6, 11]: less sensitive
- sphere formation [7, 10]: interferes statistically significantly with sphere formation
- sphere formation [7, 11]: suppresses the inhibitory activity of BAL27862
- sphere formation ([7]; GBM6 wild-type): interferes statistically significantly with sphere formation

SMILES: N#CCCNc1nonc1-c1nc2ccccc2n1CC(=O)c1ccc(NC(=O)[C@@H](N)CCCCN)cc1 [BAL101553]
- tumor mass (size) and tumor spreading versus vehicle ([8]; GBM6 GFP sh0 (EB1-expressing) tumors): clear reduction of the tumor mass (size) and in tumor spreading
- tumor mass (size) and tumor spreading versus vehicle ([8]; GBM6 GFP shEB1 (EB1 negative) tumors): minimal
- proportion of A2B5 positive GBM6 cells ([9]; EB1 downregulated GBM6 tumors): ~80%
- proportion of A2B5 negative GBM6 cells ([9]; EB1 expressing GBM6 tumors): 80%
- proportion of A2B5 positive GBM6 cells ([9]; EB1 expressing GBM6 tumors): 20%

— patent US20180306790A1, “USE OF EB1 AS A BIOMARKER OF DRUG RESPONSE” (BASILEA PHARMACEUTICA INTERNATIONAL AG, priority 2015, published 2018)
